According to patent US6818657B1, “Bioprecursors of a retinoic derivative and pharmaceutical and/or cosmetic compositions” (Pierre Fabre Dermo-Cosmetique, priority 1999, dated 2004):

Columns and labels:
[1] = molecular target: T1, recombinant β-glucocerebrosidase (Homo sapiens, UniProt P04062); assay: Michaelis constants (Km) and Vm of recombinant β-glucocerebrosidase for pseudosubstrates; assay type: biochemical; details: phthalate buffer pH 5.6 (0.025 M), taurocholate 5 mM, purified β-glucocerebrosidase, 30 minutes incubation
T1 construct: histidine tail (His tag) (C); made in house
T1 sequence (P04062 40-536): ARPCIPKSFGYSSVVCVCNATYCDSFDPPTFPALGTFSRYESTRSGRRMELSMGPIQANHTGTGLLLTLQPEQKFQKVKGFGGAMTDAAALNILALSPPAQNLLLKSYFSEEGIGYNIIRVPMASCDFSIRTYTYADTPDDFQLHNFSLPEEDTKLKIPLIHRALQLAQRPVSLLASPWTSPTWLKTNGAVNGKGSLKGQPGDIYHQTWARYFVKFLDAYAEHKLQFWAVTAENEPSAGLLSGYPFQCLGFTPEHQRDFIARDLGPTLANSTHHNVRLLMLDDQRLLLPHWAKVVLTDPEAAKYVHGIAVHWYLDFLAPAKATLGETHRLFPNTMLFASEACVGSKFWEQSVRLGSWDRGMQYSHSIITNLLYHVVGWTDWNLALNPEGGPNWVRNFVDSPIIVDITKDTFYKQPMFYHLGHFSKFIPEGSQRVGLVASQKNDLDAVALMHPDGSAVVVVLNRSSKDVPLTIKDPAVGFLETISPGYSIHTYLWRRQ
Method: After confirming that β-glucocerebrosidase is expressed in the keratinocytes, we produced a recombinant enzyme in the baculovirus system. A histidine tail was added to the COOH end of the protein to allow it to be purified by affinity column chromatography.
Thus, we were able to determine the Michaelis constants (Km) and the Vm values of the recombinant β-glucocerebrosidase in particular for the retinoic acid-arbutin glucoconjugate. The kinetics measurements are carried out in a phthalate buffer at pH 5.6 (0.025 M) containing taurocholate (5 mM), purified β-glucocerebrosidase and the test conjugate at various concentrations. The incubation lasts 30 minutes and the amount of hydroquinone-retinoic acid conjugate released is assayed by HPLC. The table below gives the results obtained. […] As regards their rates of hydrolysis, these are lower and thus allow effects to be obtained over time.

[2] = Distribution in the stratum corneum after topical application; assay type: in vivo

Cc1cc(=O)oc2cc(O[C@@H]3O[C@H](CO)[C@@H](O)[C@H](O)[C@H]3O)ccc12 [4-Methylumbelliferyl-glucopyranoside, 4-methyl-umbelliferyl-β-D-glucopyranoside]
Km [1]: 2800 ± 700 µM | Vm weighted by the amount of soluble proteins [1]: 4000 ± 1000 nmol/h/mg

CC1=C(/C=C/C(C)=C/C=C/C(C)=C/C(=O)O)C(C)(C)CCC1 [retinoic acid]
location in the stratum corneum after topical application ([2]; in vivo): accumulate in the upper layers of the stratum corneum after topical application and are removed by desquamation

Cc1c(C)c2c(c(C)c1O)CC[C@@](C)(CCC[C@H](C)CCC[C@H](C)CCCC(C)C)O2 [vitamin E (α-tocopherol), α-tocopherol]
location in the stratum corneum after topical application ([2]; topical application, same excipient): accumulate in the upper layers of the stratum corneum after topical application and are removed by desquamation

Cc1cc(O[C@@H]2O[C@H](CO)[C@@H](O)[C@H](O)[C@H]2O)cc2c1O[C@](C)(CCC[C@H](C)CCC[C@H](C)CCCC(C)C)CC2 [δ-Tocopheryl-glucopyranoside]
Vm weighted by the amount of soluble proteins [1]: 453 ± 20 nmol/h/mg | Km ([1]; HPLC assay): 7 ± 1 µM
